Assay results from patent US20050171084A1, “Methods of treatment with lxr modulators” (priority 2002, published 2005).

Experiments:
[1] = tested on: Cortical neurons; assay: Neurite outgrowth in cortical neurons; assay type: cell-based, rat; conditions: CR neurons, 24 hours, standard error of triplicate wells in parentheses
Description: Cortical neurons: Cortex from gestational day 18-20 rat embryos were collected in HBSS on ice. Cells were dissociated as described for hippocampal neurons. Cells were pelted (200 g, 5 mins and resuspended in medium as described for hippocampal cells. Cells were plated at 6000 cells/well and cultured for 24 hours.
(§1) The test compound was solubilised in DMSO and added to culture medium at time of cell plating at a dilution of 1:1000. Vehicle only (1:1000) was added to culture medium of untreated controls. Cells were fixed with 4% paraformaldehyde for 1 hour on ice, washed with PBS and stained using Coomassie. Assays were quantified using a KS300 image analysis system (Imaging Associates, UK). For each cell measured, the length from the edge of the cell to the end of the longest neurite was measured for 100 cells/well for each treatment in triplicate. All data are means and SEM pooled from three independent experiments. Results are expressed as a percentage of the length of neurites of cells treated with vehicle alone.

[2] = tested on: NTW8 mouse microglial cells; assay: Secretion of pro-inflammatory mediators from LPS/IFN-γ stimulated microglia; assay type: cell-based; conditions: LPS/INF-γ stimulated microglia cells, 24 hrs
Description: NTW8 mouse microglial cells were plated into a 96 well plate at a density of 2×10^5 cells/well in DMEM supplemented with 10% FCS, 2 mM glutamine, 10 ng/ml basic fibroblast growth factor (R&D Systems) and N-2 (Gibco). Next day, cell were stimulated for 24 hrs in DMEM containing 10 ng/ml LPS (Sigma) and 20 U/ml IFN-γ (Gibco) in the presence of increasing concentrations of the test compound solubilised in DMSO. Media was removed after 24 hrs and analysed by ELISA for secreted IL-6, TNF-α (R&D systems) and PGE2 (Amersham) or via a Greiss assay for nitric oxide (NO) production. Cell viability was assessed by an MTT assay (Promega). All data are means and SEM pooled from two independent experiments. Results are expressed as a percentage of the LPS\INF-γ stimulated control cells treated with DMSO alone.

[3] = tested on: Hippocampal neurons; assay: Neurite outgrowth in hippocampal neurons; assay type: cell-based, rat; conditions: HC neurons, 48 hours, SEM in parentheses
Description: Hippocampal neurons: The hippocampi of gestational day 18 rat embryos were dissected out, incubated in trypsin (0.08%, 30 min at 37° C.) and dissociated mechanically (16). Hippocampal cells were resuspended in neurobasal medium supplemented with B27, anti-oxidants, 1 mM glutamine, 25 μM glutamate, 1 mM pyruvate. For outgrowth assays, cells were plated at a density of 3000 cells/well into 96 well dishes that had previously been coated with poly-D-lysine followed by 10% FCS and cultured for 48 hours.
as §1

Q: What does the source list for O=C(O)Cc1cccc(OCCCN(Cc2cccc(C(F)(F)F)c2Cl)CC(c2ccccc2)c2ccccc2)c1 [Example 1, 2-(3-{3-[[2-Chloro-3-(trifluoromethyl)benzyl](2,2-diphenylethyl)amino]propoxy}-phenyl)acetic Acid]?
A: length of longest neurite, percentage of cells treated with vehicle alone ([1]; 0.3 μm test compound): 105 (1.79) %; length of longest neurite, percentage of cells treated with vehicle alone ([1]; 1.0 μm test compound): 110 (2.4) %; length of longest neurite, percentage of cells treated with vehicle alone ([1]; 3.0 μm test compound): 123.6 (6.6) %; length of longest neurite, percentage of cells treated with vehicle alone ([1]; 10.0 μm test compound): 126.23 (2.5) %; secretion of IL-6 ([2]; ELISA (FIG. 2)): inhibited; secretion of PGE2 ([2]; ELISA (FIG. 2)): inhibited; secretion of TNF-α ([2]; ELISA (FIG. 2)): inhibited; NO production ([2]; Greiss assay (FIG. 2)): inhibited; length of longest neurite, percentage of cells treated with vehicle alone ([3]; 0.3 μm test compound): 109 (6.25) %; length of longest neurite, percentage of cells treated with vehicle alone ([3]; 1.0 μm test compound): 113 (5.05) %; length of longest neurite, percentage of cells treated with vehicle alone ([3]; 3.0 μm test compound): 120 (7.75) %; length of longest neurite, percentage of cells treated with vehicle alone ([3]; 10.0 μm test compound): 147 (11.8) %
